Patent publication US8329395B2 (priority 2003, dated 2012)

Assays:
[1] = tested on: thiA-lacZ fusion (ΩamyE::thiA-lacZ) in B. subtilis TH21; type: cell-based, Bacillus subtilis; details: for repressing activity on thiA-lacZ expression: 1 μM each; for repression of thiA-lacZ expression: 1 μM in shake-flask culture, early logarithmic phase (OD600=0.8-0.9), compared to minimal medium without thiamin
Description: The strategy to isolate thiamin deregulated mutants of B. subtilis was to mutagenize bacteria that contained a thiA-lacZ fusion and then screen for colonies on XGAL-containing medium that were Lac^+ (i.e. blue colonies) in the presence of TPP or thiamin. A 732 bp-long DNA fragment containing 417 bp of the 5′ promoter region of thiA was prepared by PCR using standard methods and cloned unidirectionally in front of the promoterless lacZ gene of the pDG1728 vector (Guerout-Fleury et al. (1996) Gene 180:57-61), resulting in plasmid pTH12. This vector is designed to introduce ectopic transcriptional lacZ fusions into the non-essential amyE locus of B. subtilis. Plasmid pTH12 was linearized by restriction enzyme digestion and transformed into B. subtilis PY79, selecting for colonies that were resistant to 100 μg/ml spectinomycin.

[2] = tested on: B. subtilis PY79 gene transcripts; experiment: Microarray profiling of transcript levels in response to TPP; type: cell-based, Bacillus subtilis; details: wild-type cells, exponential phase, minimal medium without TPP vs with TPP
Description: In order to perform microarray profiling, PY79 was grown in shake-flask cultures that contained 50 ml Spizizen minimal medium with or without added thiamin pyrophosphate. Overnight cultures were diluted to Klett=10 units into fresh medium and grown to exponential growth phase (Klett=100 units). Cells from half of the culture were collected by centrifugation, and the total RNA was immediately extracted as previously described (Lee et al. (2001) J. Bacteriol. 183:7371-7380). The remaining culture was grown to early stationary phase before RNA extraction. Early stationary phase was judged to be 30 min after glucose exhaustion; glucose content in the medium was measured by a glucose analyzer 2 (Beckman, Fullerton, Calif.) using standard procedures. Preparation of labeled cDNA targets, microarray hybridization and staining procedures, and data analysis are described in Lee et al. above.

Nc1ncnc2c1ncn2[C@@H]1O[C@H](CO)[C@@H](O)[C@H]1O [adenosine]
repressing activity on thiA-lacZ expression [1]: showed repressing activity

Cc1ncc(C[n+]2csc(CCOP(=O)(O)OP(=O)(O)O)c2C)c(N)n1 [TPP, thiamin pyrophosphate]
transcript ratio wt−vit/wt+vit, gene dxs (yqiE) [2]: n/c
transcript ratio wt−vit/wt+vit, gene thiA [2]: 62
transcript ratio wt−vit/wt+vit, gene thiC [2]: n/c
transcript ratio wt−vit/wt+vit, gene thiD1 (yjbV) [2]: 32
transcript ratio wt−vit/wt+vit, gene thiD2 [2]: n/c^b
transcript ratio wt−vit/wt+vit, gene thiF (yjbU) [2]: 90
transcript ratio wt−vit/wt+vit, gene thiG (yjbT) [2]: 82
transcript ratio wt−vit/wt+vit, gene thiK [2]: n/c
transcript ratio wt−vit/wt+vit, gene thiL (ydiA) [2]: n/c
transcript ratio wt−vit/wt+vit, gene thiO (goxB) [2]: 67
transcript ratio wt−vit/wt+vit, gene thiS (yjbS) [2]: 84
transcript ratio wt−vit/wt+vit, gene ykoC [2]: 12
transcript ratio wt−vit/wt+vit, gene ykoD [2]: 26
transcript ratio wt−vit/wt+vit, gene ykoE [2]: 17
transcript ratio wt−vit/wt+vit, gene ykoF [2]: 20
transcript ratio wt−vit/wt+vit, gene ylmB [2]: 5.0
transcript ratio wt−vit/wt+vit, gene yloS [2]: 1.6
transcript ratio wt−vit/wt+vit, gene ytbJ [2]: n/c
transcript ratio wt−vit/wt+vit, gene yuaA [2]: 7.4

Cc1ncc(C[n+]2csc(CCO)c2C)c(N)n1 [thiamin]
repression of thiA-lacZ expression [1]: approximately 80 fold

c1cscn1 [thiazole]
repressing activity on thiA-lacZ expression [1]: showed repressing activity

Cc1ncc(CO)c(N)n1 [HMP, 4-amino-5-hydroxymethyl-2-methylpyrimidine]
repression of thiA-lacZ expression [1]: 6- to 7 fold
